Reference: US20220288156A1, “TREATMENT” (QUEEN MARY UNIVERSITY OF LONDON, priority 2019, published 2022)

How the values were obtained:
[1] = system: AngII-stimulated mouse cardiomyocytes; test: RNA-Seq of AngII-stimulated cardiomyocytes treated with ldCil, comparison with human heart data; format: cell-based
Experimental: Primary mouse cardiomyocytes were isolated from the whole hearts of 1-3-day old C57/BL6 wild-type mice. Hearts were dissected and removed from the thoracic cavity, mechanically minced with scissors and digested in cardiomyocyte isolation enzyme 1 (200 μl per heart) and cardiomyocyte isolation enzyme 2 (10 μl per heart) (Pierce primary cardiomyocyte isolation kit, Thermo Scientific). Digested hearts were then homogenised by gently pipetting up to 30 times with a 1 ml pipette, and the resulting single cell suspension added to complete DMEM solution (DMEM, 10% FBS, 1% Penicillin Streptomycin stock solution). After combination of all cell suspensions, the total number of viable cells were counted, and plated at approximately 1 million cells per single well of a 6 well plate. The following day, wells were washed with PBS (without calcium and magnesium), and complete cardiomyocyte growth medium added. Complete cardiomyocyte medium thereafter was replaced every other day.
Following 5 days culture at 37° C., 5% CO2, primary mouse cardiomyocytes were serum starved for 24 h in a 0.5 FBS-DMEM media. On day 6 cells were washed and refed with complete cardiomyocyte growth medium plus or minus 1 μM angiotensin II (Alfa Aesar), and this was repeated on day 7. In tandem to angiotensin II treatment, cells were either treated with vehicle or low dose Cilengitide (20 nM) (Bachem). On 8-day cardiomyocytes were lysed for RNA analysis.
Medium was removed and cells were washed 3 times in PBS. 350 μl RLT lysis buffer (Qiagen) (plus 1:100 beta-mercaptoethanol) was added to each well to disrupt and lyse the cells. Cell lysate samples were then combined with an equal volume of 70% ethanol, before RNA was extracted according to the manufacturer's instructions, before being stored at −80° C. until required. For whole hearts, less than 100 mg of tissue was lysed with 700 μl RLT lysis buffer (Qiagen) (supplemented 1:100 beta-mercaptoethanol) in a QIAshredder (Qiagen) for 10 min. Tissues were then processed as above with the RNeasy mini kit.
RNA-Seq was performed by Barts and the London Genome Centre on the Illumina NextSeq 500 platform, generating on average ˜15-17 million paired-end reads of 76 bp in length per sample. After quality check using FastQC, raw reads were mapped to the mouse genome (mm10, Genome Reference Consortium GRCm38) in the strand-specific mode using HISAT2 (65). Number of uniquely aligned reads (q>10) to the exonic region of each gene were counted using HTSeq (66) based on the GenCode annotation version M16 (Ensembl v91). Only genes that achieved at least one read count per million reads (cpm) in at least four samples (i.e., number of samples per group) were kept. Conditional quantile normalisation (cqn) was then performed accounting for gene length and GC content, and a log2 transformed reads per kilobase of transcript per million mapped reads RPKM expression matrix was subsequently generated. Differential expression analysis was performed using the ‘limma’ R package (67). Gene-set enrichment analysis (GSEA) was performed using the GSEA software (68) to identify dysregulated canonical pathways curated in the Molecular Signatures Database (MSigDB-C2-CP v6.2) (FDR q<0.1). RNA-Seq data have been deposited in Gene Expression Omnibus (GEO) under the accession number GSE127854.
The GSE57338 microarray dataset of a total of 313 individuals which included 95 ischemic patients, 82 dilated cardiomyopathy patients, and 136 individuals with non-failing hearts, was downloaded from GEO. Differential expression analysis was performed using the ‘limma’ R package comparing ischemic vs non-failing and dilated vs non-failing. GSEA was performed using the GSEA software (PMID:16199517) to identify the dysregulated canonical pathways as described above. The overlap of differentially expressed gene and pathways (p<0.05) was then examined in relation to the mouse cardiomyocyte data. […]

[2] = Mean arterial blood pressure in AAC model; format: in vivo, mouse; settings: intervention mode; 6 weeks post-AAC surgery
Experimental: Blood pressure was recorded in anaesthetised mice via intra-arterial cannulation of a carotid artery 6 weeks post-AAC surgery, using a Microtip pressure catheter (Millar instruments). Mice were placed in a supine position on a pre-warmed heating mat (46° C.), and a midline incision made extending the length of the neck with surgical scissors. The large salivary glands were gently moved laterally, and a single carotid artery was located for cannulation. The carotid artery was blunt dissected to remove visceral fats, and then ligated with surgical suture at its most rostral and caudal ends, leaving a space of roughly 2 mm in between. A small incision was made between the two ties using fine dissection spring-tip scissors, and a microtip pressure catheter was inserted into the artery. The region of the artery housing the catheter was tied in place, and the caudal tie loosened to allow blood flow into the pressure catheter. Mice were allowed to recover for 5 min, or until the blood pressure trace steadied. MABP was then averaged across a 30 s period using MATLAB analysis. All efforts were made to ensure mouse body temperature, and levels of anaesthesia in particular, remained constant between animals.

[3] = AngII vs AngII+ldCil, human failing vs non-failing
[4] = human idiopathic dilated cardiomyopathy vs non-failing
[5] = human ischemic heart vs non-failing

CC(C)[C@H]1C(=O)N[C@@H](CCCN=C(N)N)C(=O)NCC(=O)N[C@@H](CC(=O)O)C(=O)N[C@H](Cc2ccccc2)C(=O)N1C [Cilengitide, c(f*VRGD)]
transcriptomic alterations induced by AngII ([1]; 1 μM AngII plus ldCil 20 nM): back to control treated cardiomyocyte levels
PI3K and Akt signalling pathways downregulated by AngII ([1]; AngII plus ldCil): fold change restoration of both these pathways are most highly expressed
TCA and oxidative stress pathways increased by AngII ([1]; AngII plus ldCil): restored
downregulated genes concordant with human failing heart restored to non-failing human heart levels [1, 3]: 13 genes
upregulated genes concordant with human failing heart restored to non-failing human heart levels [1, 3]: 8 genes
AngII-induced differential expression of pathways (GSEA) ([1]; AngII+ldCil compared to control, FDR q>0.1): no longer significant
concordantly downregulated pathways restored to non-failing human heart profiles [1, 4]: 8 pathways
concordantly upregulated pathways restored to non-failing human heart profiles [1, 4]: 4 pathways
concordant downregulated pathways restored [1, 5]: 5 pathways
concordant pathways restored [1, 5]: 6 pathways
concordant upregulated pathways restored [1, 5]: 1 pathways
mean arterial blood pressure (MABP) [2]: not affected
